Assay results taken from ChEMBL document CHEMBL6121060, “Discovery and Development of CFTR Modulators for the Treatment of Cystic Fibrosis” (J Med Chem, 2025).
Converted amounts (≈) assume the structure as drawn.

Assays:
[1] = molecular target: T1, Cystic fibrosis transmembrane conductance regulator (Homo sapiens, UniProt P13569, F508DEL); assay: Activation of CFTR F508del mutant (unknown origin)
[2] = Intrinsic clearance in mouse liver microsomes by HPLC-MS/MS analysis; assay type: ADME, Microsome; settings: read-out: CLH (converted)
[3] = Intrinsic clearance in rat liver microsomes by HPLC-MS/MS analysis; assay type: ADME, Microsome; settings: read-out: CLH (converted)
[4] = Clearance in rat liver microsomes by LC-MS/MS analysis; assay type: ADME, Microsome
[5] = molecular target: T2, Nuclear receptor subfamily 1 group I member 2 (Homo sapiens, UniProt O75469); assay: Activation of PXR (unknown origin) at 10 uM relative to rifampicin
T2 sequence (O75469 whole entry): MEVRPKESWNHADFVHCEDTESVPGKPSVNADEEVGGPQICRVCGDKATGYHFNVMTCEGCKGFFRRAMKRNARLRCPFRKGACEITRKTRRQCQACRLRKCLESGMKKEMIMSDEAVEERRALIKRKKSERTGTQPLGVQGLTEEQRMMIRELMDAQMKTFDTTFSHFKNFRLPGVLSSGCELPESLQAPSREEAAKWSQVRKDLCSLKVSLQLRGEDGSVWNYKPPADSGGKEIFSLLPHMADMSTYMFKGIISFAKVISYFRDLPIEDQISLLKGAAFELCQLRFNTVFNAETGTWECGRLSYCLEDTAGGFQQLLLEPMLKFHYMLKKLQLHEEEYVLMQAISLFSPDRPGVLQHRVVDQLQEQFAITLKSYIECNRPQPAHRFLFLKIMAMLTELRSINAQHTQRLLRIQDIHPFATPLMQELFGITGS

[6] = Volume of distribution at steady state in rat at 3 mg/kg, iv measured for 24 hrs by LC-MS/MS analysis; assay type: ADME, organism-based; settings: in vivo, read-out: Vdss
[7] = Half life in rat at 3 mg/kg, iv measured for 24 hrs by LC-MS/MS analysis; assay type: ADME, organism-based; settings: in vivo
[8] = molecular target: T1, Cystic fibrosis transmembrane conductance regulator; assay: Potentiation of CFTR F508del mutant (unknown origin) expressed in NIH3T3 cells; assay type: cell-based
[9] = molecular target: T3, PXR (nuclear receptor subfamily 1 group I member 2) (Homo sapiens, UniProt O75469); assay: Activation of PXR (unknown origin) at 10 uM relative to control; settings: read-out: Activity
T3 sequence (O75469 whole entry): T2 sequence (O75469 whole entry)

[10] = Apparent permeability across apical to basolateral side in MDCK cells; assay type: ADME, cell-based, Canis lupus familiaris; settings: dog
[11] = Solubility of compound at pH 6.8 incubated for 12 hrs by HPLC analysis; assay type: physicochemical; settings: buffer
[12] = Metabolic stability in rat liver microsomes assessed as intrinsic clearance; assay type: ADME, Microsome
[13] = molecular target: T1, Cystic fibrosis transmembrane conductance regulator; assay: Potentiation of CFTR F508del mutant (unknown origin)
[14] = AUC in rat at 3 mg/kg, po; settings: in vivo
[15] = molecular target: T1, Cystic fibrosis transmembrane conductance regulator; assay: Potentiation of VX-809-induced corrector activity at CFTR F508del mutant in patient derived human HBE cells; assay type: cell-based

T1 sequence (P13569 as listed by the source): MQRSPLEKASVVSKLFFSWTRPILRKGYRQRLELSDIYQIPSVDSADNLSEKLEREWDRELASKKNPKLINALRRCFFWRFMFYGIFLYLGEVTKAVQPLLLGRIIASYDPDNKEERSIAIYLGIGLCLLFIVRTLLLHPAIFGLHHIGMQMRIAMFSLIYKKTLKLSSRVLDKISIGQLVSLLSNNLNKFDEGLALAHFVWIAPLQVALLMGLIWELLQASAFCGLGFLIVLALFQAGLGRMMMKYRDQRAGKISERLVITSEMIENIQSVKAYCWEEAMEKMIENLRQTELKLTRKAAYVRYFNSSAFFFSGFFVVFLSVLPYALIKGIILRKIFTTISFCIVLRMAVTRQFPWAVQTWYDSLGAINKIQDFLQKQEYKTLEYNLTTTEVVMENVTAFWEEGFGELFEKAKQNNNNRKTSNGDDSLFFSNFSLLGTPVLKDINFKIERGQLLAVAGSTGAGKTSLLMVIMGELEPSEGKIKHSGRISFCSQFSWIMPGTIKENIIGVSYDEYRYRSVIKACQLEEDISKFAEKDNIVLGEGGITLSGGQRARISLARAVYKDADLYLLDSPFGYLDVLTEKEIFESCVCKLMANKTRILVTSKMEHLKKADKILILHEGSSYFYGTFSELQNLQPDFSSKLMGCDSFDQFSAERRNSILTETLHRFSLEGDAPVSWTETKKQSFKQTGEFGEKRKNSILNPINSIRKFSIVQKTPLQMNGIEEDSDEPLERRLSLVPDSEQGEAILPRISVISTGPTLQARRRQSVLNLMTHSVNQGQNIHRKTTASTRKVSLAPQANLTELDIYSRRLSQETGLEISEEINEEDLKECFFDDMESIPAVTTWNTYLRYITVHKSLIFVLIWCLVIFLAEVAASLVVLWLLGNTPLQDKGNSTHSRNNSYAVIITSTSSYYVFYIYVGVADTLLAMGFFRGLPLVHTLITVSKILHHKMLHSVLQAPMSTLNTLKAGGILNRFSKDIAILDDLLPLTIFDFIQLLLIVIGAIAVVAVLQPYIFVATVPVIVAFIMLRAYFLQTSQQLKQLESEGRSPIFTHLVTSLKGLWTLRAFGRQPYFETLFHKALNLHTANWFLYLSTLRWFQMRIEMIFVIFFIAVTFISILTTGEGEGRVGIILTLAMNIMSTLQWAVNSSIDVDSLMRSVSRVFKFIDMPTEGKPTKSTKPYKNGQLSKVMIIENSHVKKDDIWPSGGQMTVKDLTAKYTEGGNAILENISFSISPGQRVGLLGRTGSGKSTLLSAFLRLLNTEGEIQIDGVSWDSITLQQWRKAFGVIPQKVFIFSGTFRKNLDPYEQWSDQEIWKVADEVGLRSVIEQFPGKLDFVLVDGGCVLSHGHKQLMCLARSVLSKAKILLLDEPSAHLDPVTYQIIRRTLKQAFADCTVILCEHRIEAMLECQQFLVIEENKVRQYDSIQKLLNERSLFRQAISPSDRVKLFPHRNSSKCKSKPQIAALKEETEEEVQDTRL

C[C@@H]1CN(c2nc(-n3ccc(OCC(O)C4(C(F)(F)F)CC4)n3)ccc2C(=O)NS(=O)(=O)c2ccccc2)C(C)(C)C1 (some centres undefined)
EC50 [1]: 0.24 µM

CC1(C)Cc2c(sc(NC(=O)[C@H](O)C(C)(C)C)c2C(N)=O)C(C)(C)O1
EC50 [1]: 0.003 µM

Nc1cc(S(=O)(=O)c2ccccc2OC(F)(F)F)cnc1C(=O)NC[C@@H](O)C(F)(F)F
EC50 [1]: < 0.00031 µM | CLint scaled [2]: 7.2 L/h/kg | CLint scaled [3]: 2.7 L/h/kg | CLH [4]: 0.59 L/h/kg | Activity [5]: 12% | Vd [6]: 5.1 L/kg | half-life [7]: 6.7 h

COc1ccc(Br)c2c1CCCC2C(=O)NS(=O)(=O)c1cccc2ccccc12 (centres undefined)
EC50 [1]: < 3 µM

Cc1ccc(C2CCCCC2)c(OC2(C(=O)NS(=O)(=O)c3cccc(N4CCOC[C@@H]4C)n3)CC2)c1
EC50 [1]: 0.08 µM

Cc1ccc(-c2cccc(C(F)(F)F)c2)c(OC2(C(=O)NS(=O)(=O)c3cccc(N4CCC(N)(C(F)(F)F)CC4)n3)CC2)c1
EC50 [1]: 0.08 µM

COc1ccc(C)cc1[C@]1(C(=O)NS(=O)(=O)c2cccc3nc(C)ccc23)C[C@@H]1c1cnc(C(C)C)cn1
EC50 [1]: 0.03 µM

Cc1nn(C)c(C)c1S(=O)(=O)NC(=O)c1ccc(-n2ccc(OCC(C)(C)C(F)(F)F)n2)nc1N1C[C@@H](C)CC1(C)C
EC50 [8]: 0.09 µM | activity at 10 µM [9]: 1% | Papp A→B [10]: 88 nm/s

Cc1nn(-c2ccc(F)cc2)c2nc(C(=O)NS(C)(=O)=O)cc(-c3ccc(N4CCOCC4)cc3)c12
EC50 [1]: 1.26 µM

COc1ccc(C)cc1[C@]1(C(=O)NS(=O)(=O)c2cccc3nc(C)ccc23)C[C@@H](c2ccccc2)CO1
EC50 [1]: 0.03 µM

CNC(=O)c1nc(-c2ccco2)c(C(F)(F)F)cc1N
solubility at 12 h [11]: 0.04 mg/mL (≈ 140 µM) | CLint [12]: 205 µL/min/mg | EC50 [13]: 1.86 µM

Cc1ccc(C2CCCCCC2)c(OC2(C(=O)NS(=O)(=O)c3cccc(N)n3)CC2)c1
EC50 [1]: 0.002 µM

COc1ccc(Br)c2c1C(C(=O)NS(=O)(=O)c1cccc3ccccc13)CC2 (centres undefined)
EC50 [1]: < 3 µM

CNC(=O)c1nc(Br)c(C(F)(F)F)cc1N
CLint [12]: 100 µL/min/mg

CCc1ccccc1-c1nc(NS(=O)(=O)c2cccc(N(CC)CCCC(=O)O)n2)ccc1C(F)(F)F
EC50 [1]: 0.004 µM

C[C@@H]1CN(c2nc(-n3ccc(OCCC4(C(F)(F)F)CC4)n3)ccc2C(=O)NS(=O)(=O)c2ccccc2)C(C)(C)C1 [BAMOCAFTOR]
EC50 [1]: 0.03 µM | Activity [5]: 3% | AUC [14]: 21 µg·h/mL

C[C@@H]1CN(c2nc(-n3ccc(OCC4(C(F)(F)F)CC4)n3)ccc2C(=O)NS(=O)(=O)c2ccccc2)C(C)(C)C1
EC50 [1]: 0.04 µM | Activity [5]: 19% | AUC [14]: 14.7 µg·h/mL

COc1ccc(C)cc1[C@]1(C(=O)NS(=O)(=O)c2cccc3nc(C)ccc23)C[C@@H]1c1cccc(C(F)(F)F)c1 (racemic)
EC50 [1]: 0.005 µM

Cc1ccc(C2CCCCC2)c(OC2(C(=O)NS(=O)(=O)c3cccc(N4CCC(N)(C(F)(F)F)CC4)n3)CC2)c1
EC50 [1]: 0.004 µM

C[C@H](O)CNC(=O)c1ncc(S(=O)(=O)c2ccc(OC(F)(F)F)cc2)cc1N
CLint scaled [2]: 2.5 L/h/kg | CLint scaled [3]: 1.2 L/h/kg | CLH [4]: 0.08 L/h/kg | Activity [5]: 10% | Vd [6]: 1.1 L/kg | half-life [7]: 8.9 h | EC50 [15]: 0.0807 µM

CC(C)(CN1CCCCCCc2ccccc2-c2nc(ccc2C(F)(F)F)NS(=O)(=O)c2cccc1n2)C(=O)O
EC50 [1]: 0.08 µM

C[C@@H]1CN(c2nc(-n3ccc(OCC4(C(F)(F)F)CCC4)n3)ccc2C(=O)NS(=O)(=O)c2ccccc2)C(C)(C)C1
EC50 [1]: 0.04 µM | AUC [14]: 2.2 µg·h/mL

CCOc1ccc(CC)cc1[C@@]1(C(=O)NS(=O)(=O)c2cccc3nc(C)ccc23)CCCO1
EC50 [1]: 0.03 µM

COc1ccc(C)cc1[C@@]1(C(=O)NS(=O)(=O)c2cccc3nc(C)ccc23)C[C@H](c2ccccc2)CO1 [RISELCAFTOR]
EC50 [1]: 0.01 µM

CC(C)(CO)CN1CCCCCc2ccccc2-c2nc(ccc2C(F)(F)F)NS(=O)(=O)c2cccc1n2
EC50 [1]: 0.003 µM

COc1ncc(C2CCC2)cc1C1(C(=O)NS(=O)(=O)c2cccc3c2CCCN3)CC1
EC50 [1]: < 3 µM

CC(C)(CO)CN1CCCCCCc2ccccc2-c2nc(ccc2C(F)(F)F)NS(=O)(=O)c2cccc1n2
EC50 [1]: 0.01 µM

Nc1cc(S(=O)(=O)c2ccc(OC(F)(F)F)cc2)cnc1-c1nnc([C@@H](O)c2ccccc2)o1
EC50 [1]: 0.0011 µM
